Data reported in US8372580B2, “BRCA1 function-based cellular assays” (Morehouse School of Medicine, priority 2008, dated 2013).

Assays:
Ubc9 = molecular target: T1, Ubc9 (Homo sapiens, UniProt P63279); test: GST capture (pull-down) assay of binding to Ubc9; conditions: in vitro translated full length protein
T1 construct: made in house; host or cells: E. coli
Source text: GST-Ubc9 and GST-ERα (337-379) were expressed and purified from E. coli as described previously (Wang H, Shao N, Ding O M, Cui J, Reddy E S P, Rao V N: BRCA1 proteins are transported to the nucleus in the absence of serum and splice variants BRCA1a, BRCA1b are tyrosine phosphoprotein that associate with E2F, cyclins and cyclin dependent kinases. Oncogene 15, 143-157: 1997.). For in vitro protein binding assay 35 S-Methionine-labeled in vitro translated full length BRCA1, BRCA1a (Chai Y L, Cui J, Chipitsyna G, Liao B, Lui S, Aysola K et al.: C-Fos oncogene regulator Elk-1 interacts with BRCA1 splice variants BRCA 1a/1b and enhances BRCA1a/1b mediated growth suppression in breast cancer cells. Oncogene 20: 1357-1367, 2001.), BRCA1b, BRCA1 Mut#1, BRCA1 Mut#4, BRCA1 1-182, BRCA1 1-182 Mut#1 and BRCA1 1-182 Mut 4 proteins were diluted in binding buffer (20 mM Tris-HCl (pH7.5), 150 mM NaCl, 0.1% Tween 20). The proteins were precleared with GSH beads for 30 min and then incubated with GST or various GST-ER (337-379) proteins beads for 2 hours at 4° C. The beads were then washed three times with binding buffer followed by elution of the bound proteins with SDS sample buffer and loaded on a 15% SDS-PAGE. The gels were fixed, treated with enhance, dried and exposed 9 to X-ray films) and scanned using a Fuji BioImaging analyzer. […]

[1] = system: ERα transcriptional activity in T47D breast cancer cells; test: Cell based assay #2: ERE-luciferase reporter, E2-induced ERα activation by Ubc9 C93S; conditions: Ubc9 C93S (SUMO-independent), E2 1 μM
Experimental: T47D cells (5×10^5) were plated in 6-well plates for 24 hours. The cells were washed twice in PBS followed by the addition of phenol red free DMEM containing 5% charcoal-stripped FBS for 48 hrs before transfection. The cells were transfected with 1 μg of each of the indicated plasmids (with a total of 2.5 μg DNA) using lipofectamine 2000 (Life Technology, USA). The cells were induced with 1 μM of E2 4 hours after transfections, harvested after an additional 40 hrs and assayed for luciferase activity following the manufacturer's instructions. Each set of experiments was performed in triplicate and repeated a least three times.

T1 sequence (P63279 whole entry, species assumed): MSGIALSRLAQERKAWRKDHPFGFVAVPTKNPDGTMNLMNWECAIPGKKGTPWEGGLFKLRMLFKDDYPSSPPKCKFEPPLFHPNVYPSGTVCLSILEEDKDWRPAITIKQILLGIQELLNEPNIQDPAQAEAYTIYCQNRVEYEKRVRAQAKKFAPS

Substance	binding to Ubc9 (Ubc9)	inhibition of E2-mediated ERα transcription activation by Ubc9/C93S [1]
BRCA1 Mutant #4: full length BRCA1 with RING domain cancer-predisposing mutation C61G	did not observe any significant binding	unlike their respective Mut #1 and Mut#4, inhibit
BRCA1 Mutant #1: BRCA1 point mutant 1; apparently SUMO acceptor site mutation lysine (K) 109 to arginine (R)		unlike their respective Mut #1 and Mut#4, inhibit
BRCA1: full-length product of the BRCA1 (breast cancer 1) tumor suppressor gene		inhibit E2-mediated ERα transcription activation by Ubc9/C93S
